Reference: patent publication US5977386A, “6-thio-substituted paclitaxels” (Bristol-Myers Squibb Company, priority 1997, dated 1999)
Like-named read-outs stand apart in the source and are kept apart here.

Assays:
M109 lung carcinoma = assay: Mice M109 Model (In-Vivo), ip M109 lung carcinoma, median survival; set-up: species or system mouse; conditions: ip M109, Balb/c×DBA/2 F1 mice, ip injections days 5 and 8 post-implant, at optimal dose
Description: Balb/c×DBA/2 F1 hybrid mice were implanted intraperitoneally, as described by William Rose in Evaluation of Madison 109 Lung Carcinoma as a Model for Screening Antitumor Drugs, Cancer Treatment Reports, 65, No. 3-4 (1981), with 0.5 mL of a 2% (w/v) brei of M109 lung carcinoma.
Mice were treated with compounds under study by receiving intraperitoneal injections of various doses on days 5 and 8 post-implant. Mice were followed daily for survival until approximately 75 days post-tumor implant. One group of mice per experiment remained untreated and served as the control group.
Median survival times of compound-treated (T) mice were compared to the median survival time of the control (C) mice. The ratio of the two values for each compound-treated group of mice was multiplied by 100 and expressed as a percentage (i.e. % T/C) in the following Table II for representative compounds.
(§1) ^a Optimal dose (mg/kg/inj) if active, otherwise, maximal tolerated
(§2) dose (MTD) or highest dose tested.

[1] = system: HCT-116 human colon carcinoma cells; assay: MTS cytotoxicity assay (72 h exposure); type: cell-based
Description: Cytoxicity was assessed in HCT-116 human colon carcinoma cells by MTS (3-(4,5-dimethylthiazol-2-yl)-5-(3-carboxymethoxyphenyl)-2-(4-sulphenyl)-2H-tetrazolium, inner salt) assay as reported in T. L. Riss, et. al., "Comparison of MTT, XTT, and a novel tetrazolium compound MTS for in vitro proliferation and chemosensitivity assays.," Mol. Biol. Cell 3 (Suppl.):184a, 1992. Cells were plated at 4,000 cell/well in 96 well microtiter plates and 24 hours later drugs were added and serial diluted. The cells were incubated at 37° for 72 hours at which time the tetrazolium dye, MTS at 333 μg/ml (final concentration), in combination with the electron coupling agent phenazine methosulfate at 25 μM (final concentration) was added. A dehydrogenase enzyme in live cells reduces the MTS to a form that absorbs light at […] which can be quantitated spectrophotometrically. The greater the absorbance the greater the number of live cells. The results are expressed as an IC50, which is the drug concentration required to inhibit cell proliferation (i.e. absorbance at 450 nm) to 50% of that of untreated control cells. The IC50 values for compounds evaluated in this assay are evaluated in Table I.
^1 Cytotoxicity was determined after a 72 h exposure by MTS assay.

M5076 murine sarcoma = assay: sc M5076 murine sarcoma model, tumor growth delay; type: in vivo; conditions: sc M5076, iv on days 1, 3, 5, 7, and 9 post-implant, at optimal dose
Description: M5076: Taxane derivatives were tested in the M5076 murine sarcoma model using the general materials and methods described by Rose, W. C. in Anticancer Research 6: 557-562, 1986, for subcutaneous M5076 implants, with the following modifications: treatments were administered intravenously on Days 1, 3, 5, 7, and 9 post-tumor implant using eight mice per treatment and untreated control group. Activity was determined based on an increase in lifespan (as described in the preceding reference) of […], and, in particular, on a delay in tumor growth equivalent to at least 1 gross log cell kill (LCK). The latter was calculated as described in Rose, W. C. and Basler, G. A. in In Vivo 4: 391-396, 1990.
as §1, §2

[2] = Homo sapiens, HCT-116, read-out: Cytotoxicity Assay IC50 against HCT 116 Human colon tumor cell line
[3] = Homo sapiens, HCT-116, 72 h, read-out: Cytotoxicity Assay IC50 against HCT 116 Human colon tumor cell line

CC(=O)O[C@H]1C(=O)[C@]2(C)C[C@@H](SCC(=O)O)[C@H]3OC[C@@]3(OC(C)=O)[C@H]2[C@H](OC(=O)c2ccccc2)[C@]2(O)C[C@H](OC(=O)[C@H](O)[C@@H](NC(=O)c3ccccc3)c3ccccc3)C(C)=C1C2(C)C [Compound 55]
Maximum % T/C (ratio of median survival times treated/control x 100) (M109 lung carcinoma): 107% | IC50 [1, 2]: > 108 nM

CC(=O)CS[C@@H]1C[C@@]2(C)C(=O)[C@H](OC(C)=O)C3=C(C)[C@@H](OC(=O)[C@H](O)[C@@H](NC(=O)c4ccccc4)c4ccccc4)C[C@@](O)([C@@H](OC(=O)c4ccccc4)[C@@H]2[C@]2(OC(C)=O)CO[C@H]12)C3(C)C [Compound 34, 6-b-thiomethyl methyl keto-7-deoxytaclitaxel]
Maximum % T/C (ratio of median survival times treated/control x 100) (M109 lung carcinoma): 168% | IC50 [1, 3]: 1.2 nM

CC(=O)O[C@H]1C(=O)[C@]2(C)C[C@@H](Sc3cccs3)[C@H]3OC[C@@]3(OC(C)=O)[C@H]2[C@H](OC(=O)c2ccccc2)[C@]2(O)C[C@H](OC(=O)[C@H](O)[C@@H](NC(=O)c3ccccc3)c3ccccc3)C(C)=C1C2(C)C [Compound 54, 6-b-thio-(2-thienyl)-7-deoxypaclitaxel]
Maximum % T/C (ratio of median survival times treated/control x 100) (M109 lung carcinoma): 148% | IC50 [1, 3]: 1.1 nM

CC(=O)O[C@H]1C(=O)[C@]2(C)C[C@@H]([S+](C)[O-])[C@H]3OC[C@@]3(OC(C)=O)[C@H]2[C@H](OC(=O)c2ccccc2)[C@]2(O)C[C@H](OC(=O)[C@H](O)[C@@H](NC(=O)c3ccccc3)c3ccccc3)C(C)=C1C2(C)C (single isomer, unassigned) [Compound 19, 7-deoxy-6β-methyl sulfoxide-paclitaxel]
Maximum % T/C (ratio of median survival times treated/control x 100) (M109 lung carcinoma): 169% | Maximum T-C in LCK (gross log cell kill) (M5076 murine sarcoma): 0.4 LCK | IC50 ([1]; 4320 min, read-out: Cytotoxicity Assay IC50 against HCT 116 Human colon tumor cell line): 50.9 nM

CC(=O)O[C@H]1C(=O)[C@]2(C)C[C@@H](S(C)(=O)=O)[C@H]3OC[C@@]3(OC(C)=O)[C@H]2[C@H](OC(=O)c2ccccc2)[C@]2(O)C[C@H](OC(=O)[C@H](O)[C@@H](NC(=O)c3ccccc3)c3ccccc3)C(C)=C1C2(C)C [Compound 21, 7-deoxy6β-methyl sulfone-paclitaxel]
Maximum % T/C (ratio of median survival times treated/control x 100) (M109 lung carcinoma): 147% | Maximum T-C in LCK (gross log cell kill) (M5076 murine sarcoma): 0 LCK | IC50 [1, 2]: > 109 nM

CC(=O)O[C@H]1C(=O)[C@]2(C)C[C@@H](SC#N)[C@H]3OC[C@@]3(OC(C)=O)[C@H]2[C@H](OC(=O)c2ccccc2)[C@]2(O)C[C@H](OC(=O)[C@H](O)[C@@H](NC(=O)c3ccccc3)c3ccccc3)C(C)=C1C2(C)C [Compound 17, 7-deoxy-6β-thiocyanato-paclitaxel]
Maximum % T/C (ratio of median survival times treated/control x 100) (M109 lung carcinoma): 194% | Maximum T-C in LCK (gross log cell kill) (M5076 murine sarcoma): 0.7 LCK | IC50 [1, 3]: 3.8 nM

CC(=O)O[C@H]1C(=O)[C@]2(C)C[C@@H](Sc3ccccc3)[C@H]3OC[C@@]3(OC(C)=O)[C@H]2[C@H](OC(=O)c2ccccc2)[C@]2(O)C[C@H](OC(=O)[C@H](O)[C@@H](NC(=O)c3ccccc3)c3ccccc3)C(C)=C1C2(C)C [Compound 52, 6b-thiophenyl-7-deoxy-paclitaxel]
Maximum % T/C (ratio of median survival times treated/control x 100) (M109 lung carcinoma): 114% | IC50 [1, 3]: 0.58 nM

COC(=O)CS[C@@H]1C[C@@]2(C)C(=O)[C@H](OC(C)=O)C3=C(C)[C@@H](OC(=O)[C@H](O)[C@@H](NC(=O)c4ccccc4)c4ccccc4)C[C@@](O)([C@@H](OC(=O)c4ccccc4)[C@@H]2[C@]2(OC(C)=O)CO[C@H]12)C3(C)C [Compound 40, 6b-thioacetyl methyl ester-7-deoxypaclitaxel]
Maximum % T/C (ratio of median survival times treated/control x 100) (M109 lung carcinoma): 103% | IC50 [1, 3]: 2.5 nM

C=CCOC(=O)CS[C@@H]1C[C@@]2(C)C(=O)[C@H](OC(C)=O)C3=C(C)[C@@H](OC(=O)[C@H](O)[C@@H](NC(=O)c4ccccc4)c4ccccc4)C[C@@](O)([C@@H](OC(=O)c4ccccc4)[C@@H]2[C@]2(OC(C)=O)CO[C@H]12)C3(C)C [Compound 42, 7-deoxy-6b-allyl thioacetatepaclitaxel]
Maximum % T/C (ratio of median survival times treated/control x 100) (M109 lung carcinoma): 106% | IC50 [1, 3]: 9 nM
